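Step 1: Grow cells in 96-well plates. Step 2: Expose to compound for 48 hours at 5 concentrations. Step 3: Interpolate endpoints linearly; if unreached, use highest concentration. The concentration for 50% growth inhibition is given as GI50.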 Activity calls are given as the source filed them. No stated cut-off is given here; in the data, active = GI50 up to about 1.1 µM and inactive = higher.
Legend:
Assay in all cases: NCI anticancer screen, dose series, 48 h
OVCAR-5 = tested on: OVCAR-5
SR = tested on: SR
LOX IMVI = tested on: LOX IMVI
PC-3 = tested on: PC-3
BT-549 = tested on: BT-549
HCT-15 = tested on: HCT-15
MCF7 = tested on: MCF7
RXF 393 = tested on: RXF 393
T47D = tested on: T47D
NCI-H226 = tested on: NCI-H226
HOP-92 = tested on: HOP-92
UACC-62 = tested on: UACC-62
SK-MEL-28 = tested on: SK-MEL-28
MDA-MB-231 = tested on: MDA-MB-231
IGROV-1 = tested on: IGROV-1
HCT-116 = tested on: HCT-116
SNB-19 = tested on: SNB-19
K562 = tested on: K562
KM12 = tested on: KM12
A498 = tested on: A498

SMILES | GI50 (OVCAR-5) | GI50 (SR) | GI50 (LOX IMVI) | GI50 (PC-3) | GI50 (BT-549) | GI50 (HCT-15) [µM] | GI50 (MCF7) | GI50 (RXF 393) | GI50 (T47D) | GI50 (NCI-H226) | GI50 (HOP-92) | GI50 (UACC-62) | GI50 (SK-MEL-28) | GI50 (MDA-MB-231) | GI50 (IGROV-1) | GI50 (HCT-116) | GI50 (SNB-19) | GI50 (K562) | GI50 (KM12) | GI50 (A498)
COc1ccc(-c2c(C#N)c(=O)nc(SC)n2C2OCC(OC(C)=O)C(OC(C)=O)C2OC(C)=O)cc1 (stereo not given) | > 100 µM (inactive) | 5.11 µM (inactive) | 64.1 µM (inactive) | 47.3 µM (inactive) | 68.2 µM (inactive) | 34.8 | > 100 µM (inactive) | > 100 µM (inactive) | 63.4 µM (inactive) | > 100 µM (inactive) | > 100 µM (inactive) | 33.5 µM (inactive) | > 100 µM (inactive) | 58.7 µM (inactive) | > 100 µM (inactive) | 31.6 µM (inactive) | 91.8 µM (inactive) | 18.1 µM (inactive) | > 100 µM (inactive) | 62.1 µM (inactive)
COCCOC1=C(Cl)C(=O)c2c(O)ccc(O)c2C1=O | 6.93 µM (inactive) | 0.78 µM (active) | 1.16 µM (inactive) | 4.62 µM (inactive) | 2.52 µM (inactive) | 1.21 | 1.21 µM (inactive) | 0.798 µM (active) | 2.47 µM (inactive) | 12.1 µM (inactive) | 0.726 µM (active) | 4.81 µM (inactive) | 2.27 µM (inactive) | 1.41 µM (inactive) | 3.08 µM (inactive) | 0.979 µM (active) | 14.6 µM (inactive) | 0.635 µM (active) | 9.48 µM (inactive) | 10.4 µM (inactive)
O=C1/C(=C/c2ccc(O)c(O)c2)CCC/C1=C\c1ccc(O)c(O)c1 | 14 µM (inactive) | 1.58 µM (inactive) | 2.11 µM (inactive) | 3.98 µM (inactive) | 4.74 µM (inactive) | 4.13 | 5.16 µM (inactive) | 2.62 µM (inactive) | 3.87 µM (inactive) | 5.6 µM (inactive) | 2.98 µM (inactive) | 2.86 µM (inactive) | 3.94 µM (inactive) | 5.14 µM (inactive) | 4.05 µM (inactive) | 2.37 µM (inactive) | 7.08 µM (inactive) | 3.71 µM (inactive) | 3.95 µM (inactive) | 7.64 µM (inactive)
CN(C)CCNC(=O)c1c(O)ccc2c1c1c(n2CCc2ccccc2)C(=O)c2ccccc2C1=O | 15.5 µM (inactive) | 2.58 µM (inactive) | 2.43 µM (inactive) | 12 µM (inactive) | 16.1 µM (inactive) | 4.47 | 3.37 µM (inactive) | 0.302 µM (active) | 3.66 µM (inactive) | 16.8 µM (inactive) | 8.97 µM (inactive) | 2.76 µM (inactive) | 1.98 µM (inactive) | 5.27 µM (inactive) | 8.47 µM (inactive) | 3.6 µM (inactive) | 9.68 µM (inactive) | 2.39 µM (inactive) | 4.15 µM (inactive) | 14.8 µM (inactive)
COc1ccccc1/C=C1\CCC(CN(C)C)C1=O (stereo not given) | 12.7 µM (inactive) | 6.15 µM (inactive) | 2.14 µM (inactive) | 8.05 µM (inactive) | 13.3 µM (inactive) | 2.75 | 2.12 µM (inactive) | 3.84 µM (inactive) | 3.58 µM (inactive) | 11.4 µM (inactive) | 2.99 µM (inactive) | 4.21 µM (inactive) | 4.36 µM (inactive) | 2.43 µM (inactive) | 13.3 µM (inactive) | 3.48 µM (inactive) | 17.1 µM (inactive) | 2.28 µM (inactive) | 3.75 µM (inactive) | 19.3 µM (inactive)
CN1CCN2CCN(C)CCN(CC1)CC2 | > 100 µM (inactive) | > 100 µM (inactive) | > 100 µM (inactive) | > 100 µM (inactive) | > 100 µM (inactive) | > 100 | > 100 µM (inactive) | > 100 µM (inactive) | > 100 µM (inactive) | > 100 µM (inactive) | > 100 µM (inactive) | > 100 µM (inactive) | > 100 µM (inactive) | > 100 µM (inactive) | > 100 µM (inactive) | > 100 µM (inactive) | > 100 µM (inactive) | > 100 µM (inactive) | > 100 µM (inactive) | > 100 µM (inactive)

— ChEMBL document CHEMBL1201862, “PubChem BioAssay data set” (2004)
